According to patent publication US20030158120A1, “Combination product comprising melagatran and a factor xa inhibitor” (AstrZeneca AB, priority 2000, published 2003):
pIC50: −log10 of the molar value.

Assays:
[1] = test system: human plasma; test: Prothrombin time clotting assay; type: biochemical
Description: Human blood from healthy volunteers, both men and women, was collected in 50 mL conical plastic tubes containing 5 mL of 0.13 mol/L of buffered tri-sodium citrate. The blood was immediately chilled on ice and centrifuged at 2000×g for 20 minutes.
100 μL of human plasma was pre-warmed to 37° C. for 180 seconds before coagulation was initiated by the addition of 200 μL pre-warmed assay reagent (Thromboplastin-S, ISI 1.1, Biopool Umea, Sweden). The prothrombin time (PT) was determined on a mechanical coagulometer, coupled to a CR-A calculator, CR 10 printer and a PR60 heat block (KC 10A Amelung, Germany). Each clotting test was performed in duplicate.
In order to determine the relative potency of each inhibitor and a 50:50 mixture thereof, the concentration required to double the prothrombin time (IC50) was determined as follows: The ratio of prothrombin time in control plasma (PT0) to the prothrombin time in the presence of different inhibitor concentrations (PTinhibitor) were plotted against the inhibitor concentration (log transformed) and fitted to sigmoidal dose-response curves from which IC50 values were calculated according to the equation:
where y=(PTO)/(PT) with a range from 1 to 0; a=maximal range i.e. 1, when PTmela is equal to PT0; s=the slope of the dose-response curve, x=log concentration of inhibitor, IC50=the concentration of melagatran that doubles the prothrombin time. The calculations were processed on a PC using the software program GraFit® Erithacus Version 3.0 (Robin Leatherbarrow, Imperial Collage of Science, Technology & Medicine, London).

| Structure (SMILES) | melting point [°C] | pIC50 ([1]; from sigmoidal dose-response curves of PT0/PTinhibitor, human plasma, total concentration for the mixture, read-out: IC50 (concentration required to double the prothrombin time)) | Prothrombin time ([1]; plasma conc. 0.23 μmol/L) [s] | Prothrombin time ([1]; plasma conc. 0.47 μmol/L) [s] | Prothrombin time ([1]; plasma conc. 0.70 μmol/L) [s] | Prothrombin time ([1]; plasma conc. 0.93 μmol/L) [s] | Prothrombin time ([1]; plasma conc. 1.17 μmol/L) [s] | Prothrombin time ([1]; plasma conc. 1.40 μmol/L) [s] | Prothrombin time ([1]; plasma conc. 1.63 μmol/L) [s] | Prothrombin time ([1]; plasma conc. 1.86 μmol/L) [s] | Prothrombin time ([1]; plasma conc. 2.10 μmol/L) [s] | PT ([1]; single inhibitor at 2.33 μmol/L in human platelet poor plasma) [s] |
| --- | --- | --- | --- | --- | --- | --- | --- | --- | --- | --- | --- | --- |
| O=C(c1ccc(-c2cc[n+]([O-])cc2)cc1)N1CCN(S(=O)(=O)c2cc3cc(Cl)ccc3[nH]2)CC1 [Example 1, 4-{4-[4(5-Chloroindol-2-ylsulfonyl)piperazine-1-carbonyl]phenyl}-pyridine-1-oxide] | 265 to 267 |  |  |  |  |  |  |  |  |  |  |  |
| N=C(N)c1ccc(CNC(=O)[C@@H]2CCN2C(=O)[C@H](NCC(=O)O)C2CCCCC2)cc1 [melagatran, HOOC—CH2—(R)Cgl-Aze-Pab-H] |  | 6.13 | 18.1 | 21.8 | 25.4 | 32.6 | 43.2 | 53.8 | 65.3 | 76.3 | 87.2 | 95.2 |
